IC50, MIC and GI50 data for 22 molecules are collected here from ChEMBL document CHEMBL4265894, “Developing potential Helicobacter pylori urease inhibitors from novel oxoindoline derivatives: Synthesis, biological evaluation and in silico study” (Bioorg Med Chem Lett, 2018).

Converted amounts (≈) assume the structure as drawn. Where only a bound is given, the exact number is not on record here.

In general, IC50 refers to the concentration that gives 50% inhibition. A higher IC50 goes with weaker potency in that assay. By MIC is commonly meant the lowest concentration that inhibits growth of the organism. A higher MIC goes with a less susceptible organism. By GI50 is commonly meant the concentration giving 50% growth inhibition. High values mean lower sensitivity of the cells, low ones greater sensitivity of the cells.

Data set [1] addresses Urease (Helicobacter pylori, UniProt Q0PXQ5). The data set can be described thus: Inhibition of Helicobacter pylori urease after 50 mins by indophenol method.
The subject of data set [2] is Helicobacter pylori. The data set can be described thus: Antibacterial activity against Helicobacter pylori after 48 hrs. The data set is classed as functional.
Data set [3] is described as follows: Cytotoxicity against HEK293T cells after 24 hrs by MTT assay. Type of data set: cell-based, HEK-293T. As to conditions: human. In general terms: Tetrazolium dyes change colour on reduction, which living cells bring about.
Data set [4] can be described thus: Cytotoxicity against human LO2 cells after 24 hrs by MTT assay. Type of data set: cell-based, L02.

Urease, sequence (Q0PXQ5 whole entry): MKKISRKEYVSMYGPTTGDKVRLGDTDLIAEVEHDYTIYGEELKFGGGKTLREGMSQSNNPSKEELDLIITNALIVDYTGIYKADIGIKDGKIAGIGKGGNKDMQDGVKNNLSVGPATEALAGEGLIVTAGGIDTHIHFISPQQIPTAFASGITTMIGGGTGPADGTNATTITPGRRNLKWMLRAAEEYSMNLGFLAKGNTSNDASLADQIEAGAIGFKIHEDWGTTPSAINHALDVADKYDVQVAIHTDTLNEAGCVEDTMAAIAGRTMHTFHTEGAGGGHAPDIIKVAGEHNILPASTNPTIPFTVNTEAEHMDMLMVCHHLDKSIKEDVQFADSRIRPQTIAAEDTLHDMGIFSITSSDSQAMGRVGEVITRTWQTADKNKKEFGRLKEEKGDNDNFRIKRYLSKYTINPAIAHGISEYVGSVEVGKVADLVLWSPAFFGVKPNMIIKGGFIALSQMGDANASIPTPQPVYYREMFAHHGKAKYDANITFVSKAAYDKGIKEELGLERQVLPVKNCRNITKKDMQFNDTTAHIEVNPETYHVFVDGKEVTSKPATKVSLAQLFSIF

With `CC(C)=CCN1C(=O)/C(=N/NC(=O)c2ccc(C)cc2)c2ccccc21`, the midpoint of inhibition in data set [1], the IC50, lay at 29.9 µM. Further, the MIC in data set [2] was 58.1 µM (≈ 20.2 µg/mL).
The like results for `CC(C)=CCN1C(=O)/C(=N/NC(=O)c2ccc(Br)cc2)c2ccccc21` were, in that order, 83.9 µM and 137 µM (≈ 56.5 µg/mL).
On to `COc1cc(OC)cc(C(=O)N/N=C2/C(=O)N(CC=C(C)C)c3ccccc32)c1`, for which, in data set [1], the IC50 is 1.35 µM. Further, the results for the concentration for 50% growth inhibition (GI50) at 24 h in data set [3] and in data set [4] were 176 µM and 188 µM, respectively. The molecule also showed a minimum inhibitory concentration (MIC) in data set [2] of 1.96 µM (≈ 0.771 µg/mL).
On to `Cc1ncc([N+](=O)[O-])n1CCO` [METRONIDAZOLE], for which inhibition of growth in data set [2] (MIC) required 31.3 µM (≈ 5.36 µg/mL).
In turn, `CC(C)=CCN1C(=O)/C(=N/NC(=O)c2ccc(C(F)(F)F)cc2)c2ccccc21` had a concentration for half-maximal inhibition (IC50) in data set [1] of 44.1 µM. For the same molecule, in data set [2], the minimal inhibitory concentration (MIC) was 83.9 µM (≈ 33.7 µg/mL).
On the same counts, the results for `CC(C)=CCN1C(=O)/C(=N/NC(=O)c2ccc(Oc3ccccc3)cc2)c2ccccc21` are 22.7 µM and 41.8 µM (≈ 17.8 µg/mL).
On the same counts, the results for `CC(C)=CCN1C(=O)/C(=N/NC(=O)c2cccc(Br)c2)c2ccccc21` are 27.6 µM and 50.5 µM (≈ 20.8 µg/mL).
The like results for `COc1cccc(C(=O)N/N=C2/C(=O)N(CC=C(C)C)c3ccccc32)c1` were, in that order, 8.21 µM and 15.2 µM (≈ 5.52 µg/mL).
As for `CC(C)=CCN1C(=O)/C(=N/NC(=O)c2cccc(C(F)(F)F)c2)c2ccccc21`, in data set [1], the IC50 is 65.8 µM. Also, the MIC in data set [2] was found to be 108 µM (≈ 43.3 µg/mL).
With `COc1ccc(C(=O)N/N=C2/C(=O)N(CC=C(C)C)c3ccccc32)cc1OC`, half-maximal inhibition in data set [1] (IC50) required 0.71 µM. In addition, the 50% growth inhibitory concentration (GI50) at 24 h in data set [3] was 184 µM; in data set [4], 178 µM. In data set [2], this molecule returned a minimal inhibitory concentration (MIC) of 0.48 µM (≈ 0.189 µg/mL).
The molecule `CC(C)=CCN1C(=O)/C(=N/NC(=O)c2ccccc2)c2ccccc21` displayed an IC50 in data set [1] of 129 µM. In data set [2], this molecule displayed an MIC of 171 µM (≈ 57 µg/mL).
As to `CC(C)=CCN1C(=O)/C(=N/NC(=O)c2ccc(Cl)cc2)c2ccccc21`, the IC50 in data set [1] was found to be 143 µM. Also, the GI50 at 24 h in data set [3] and in data set [4] was > 200 µM each time. This molecule yielded an MIC in data set [2] of 185 µM (≈ 68 µg/mL).
In data set [1], `COc1ccccc1C(=O)N/N=C1/C(=O)N(CC=C(C)C)c2ccccc21` came in with a half-maximal inhibitory concentration (IC50) of 11.7 µM. In addition, it took 19.5 µM (≈ 7.09 µg/mL) to inhibit growth in data set [2] (MIC).
`CC(C)=CCN1C(=O)/C(=N/NC(=O)c2ccc(F)cc2)c2ccccc21` had an IC50 in data set [1] of 154 µM. In addition, the GI50 at 24 h was 195 µM in data set [3] and > 200 µM in data set [4]. The minimal inhibitory concentration (MIC) in data set [2] was > 200 µM.
In data set [1], `CC(C)=CCN1C(=O)/C(=N/NC(=O)c2cc(C)cc(C)c2)c2ccccc21` showed an IC50 of 4.38 µM. The molecule also registered an MIC in data set [2] of 6.75 µM (≈ 2.44 µg/mL).
`CC(=O)NO` [ACETOHYDROXAMIC ACID] displayed an IC50 in data set [1] of 17.2 µM.
`CC(C)=CCN1C(=O)/C(=N/NC(=O)c2ccc(C(C)C)cc2)c2ccccc21` came in with an IC50 in data set [1] of 14.9 µM. The same molecule gave a minimum inhibitory concentration (MIC) in data set [2] of 27.5 µM (≈ 10.3 µg/mL).
Regarding `CC(C)=CCN1C(=O)/C(=N/NC(=O)c2cccc(Cl)c2)c2ccccc21`, the IC50 in data set [1] came out at 38.1 µM. This molecule also registered a minimum inhibitory concentration (MIC) in data set [2] of 72.5 µM (≈ 26.7 µg/mL).
In the case of `COc1ccc(C(=O)N/N=C2/C(=O)N(CC=C(C)C)c3ccccc32)cc1F`, in data set [1], the concentration for half-maximal inhibition (IC50) was 3.82 µM. The results for the GI50 at 24 h in data set [3] and in data set [4] were 169 µM and > 200 µM, respectively. This molecule registered an MIC in data set [2] of 3.94 µM (≈ 1.5 µg/mL).
In turn, `COc1ccc(C(=O)N/N=C2/C(=O)N(CC=C(C)C)c3ccccc32)cc1` displayed an IC50 in data set [1] of 6.99 µM. In data set [2], this molecule returned a minimum inhibitory concentration (MIC) of 10.3 µM (≈ 3.74 µg/mL).
Turning to `CC(C)=CCN1C(=O)/C(=N/Nc2ccccc2)c2ccccc21`, in data set [1], the half-maximal inhibitory concentration (IC50) is > 300 µM. The GI50 at 24 h in data set [3] and in data set [4] was > 200 µM each time. Moreover, the minimal inhibitory concentration (MIC) in data set [2] was > 200 µM.
In turn, `CC(C)=CCN1C(=O)/C(=N/NC(=O)c2ccc(C(C)(C)C)cc2)c2ccccc21` displayed a 50% inhibitory concentration (IC50) in data set [1] of 19.5 µM. Moreover, inhibition of growth in data set [2] (MIC) required 30.8 µM (≈ 12 µg/mL).
